Results from the Kinase Knowledgebase extract (Sharma et al. 2016).

target: PIK3CA (human) (UniProt P42336); experiment: Assessment of PIK3CA Kinase Activity
Sequence (P42336 whole entry, looked up): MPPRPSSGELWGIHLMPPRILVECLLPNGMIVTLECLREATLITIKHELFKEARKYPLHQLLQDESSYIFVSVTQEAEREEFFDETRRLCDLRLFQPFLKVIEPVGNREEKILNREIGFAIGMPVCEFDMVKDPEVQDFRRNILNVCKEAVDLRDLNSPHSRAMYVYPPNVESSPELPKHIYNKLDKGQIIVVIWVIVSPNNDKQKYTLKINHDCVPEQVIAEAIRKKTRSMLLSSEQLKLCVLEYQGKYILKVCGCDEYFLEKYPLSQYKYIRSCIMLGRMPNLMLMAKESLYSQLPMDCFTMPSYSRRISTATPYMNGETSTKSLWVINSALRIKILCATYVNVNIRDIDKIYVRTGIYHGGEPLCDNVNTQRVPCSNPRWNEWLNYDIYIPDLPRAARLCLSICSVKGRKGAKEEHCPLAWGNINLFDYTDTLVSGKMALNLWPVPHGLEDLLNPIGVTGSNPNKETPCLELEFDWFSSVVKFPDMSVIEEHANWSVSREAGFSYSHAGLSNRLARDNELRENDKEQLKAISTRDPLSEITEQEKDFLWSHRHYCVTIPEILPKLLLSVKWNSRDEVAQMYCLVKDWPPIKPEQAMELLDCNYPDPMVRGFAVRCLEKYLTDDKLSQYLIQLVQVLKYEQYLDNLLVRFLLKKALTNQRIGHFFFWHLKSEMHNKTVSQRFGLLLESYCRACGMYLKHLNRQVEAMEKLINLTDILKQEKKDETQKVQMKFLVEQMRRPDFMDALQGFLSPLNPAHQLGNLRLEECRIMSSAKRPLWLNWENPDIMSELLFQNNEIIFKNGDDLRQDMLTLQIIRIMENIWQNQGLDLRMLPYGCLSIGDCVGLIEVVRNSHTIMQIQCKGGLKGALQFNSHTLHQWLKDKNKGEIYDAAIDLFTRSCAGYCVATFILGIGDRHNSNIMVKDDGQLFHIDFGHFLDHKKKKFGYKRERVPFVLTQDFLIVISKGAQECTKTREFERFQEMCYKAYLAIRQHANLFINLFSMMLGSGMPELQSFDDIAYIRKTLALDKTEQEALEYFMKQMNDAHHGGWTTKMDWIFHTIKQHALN

Structure (SMILES)	IC50 [nM]
CC(C)(C(=O)O)n1cc(-c2ccc3c(c2)OCCc2sc(-c4ncnn4CC(F)(F)F)nc2-3)cn1	< 1000
CC(C)(O)Cn1cc(-c2ccc3c(c2)OCCc2sc(-c4nccn4C4COC4)nc2-3)cn1	< 1000
O=C(c1nc2c(s1)CCOc1cc(-c3cn[nH]c3)ccc1-2)N1CCC1	< 1000
Fc1ccc(-n2ncnc2-c2cc3c(s2)-c2ccc(C4CNC4)cc2OCC3)c(F)c1	< 1000
CC(C)n1nc(CO)nc1-c1nc2c(s1)CCOc1ccccc1-2	< 1000
O=C(c1nc2c(s1)CCOc1cc(-c3cn[nH]c3)ccc1-2)N1CC(F)(F)C1	< 1000
O=C(c1nc2c(s1)CCOc1cc(-c3cn[nH]c3)ccc1-2)N1CCN2CCCC[C@@H]2C1	< 1000
CC(O)C(=O)N1CC(n2ccnc2-c2nc3c(s2)CCOc2cc(-c4cnn(CC(C)(C)O)c4)ccc2-3)C1 (stereo unspecified)	< 1000
CN(CCO)C(=O)c1ccc(Cl)c(N(C)C(=O)c2cc3c(s2)-c2ccc(C(=O)NCCS(C)(=O)=O)cc2OCC3)c1	< 1000
CN(C)C(=O)c1nc2c(s1)CCOc1cc(-c3cn[nH]c3)ccc1-2	< 1000
Cc1ncccc1-c1ccc2c(c1)-c1nc(C(=O)N(CCO)C(C)C)sc1CCO2	< 1000
CC(C)n1ncnc1-c1nc2c(s1)CCOc1ccc(C3CN(C(=O)[C@@H](C)O)C3)cc1-2	< 1000
CC(C)n1ncnc1-c1nc2c(s1)CCOc1cc(C3CN(C(=O)C(C)(C)O)C3)ccc1-2	< 1000
CC(C)n1ncnc1-c1nc2c(s1)CCOc1cc(O[C@H](C)C(N)=O)ccc1-2	< 1000
COc1ccc(-c2ccc3c(c2)-c2nc(-c4ncnn4C(C)C)sc2CCO3)cn1	< 1000
CO[C@@H]1CCCN(C(=O)c2nc3c(s2)CCOc2cc(-c4cn[nH]c4)ccc2-3)C1	< 1000
CC(C)N(CCO)C(=O)c1nc2c(s1)CCOc1ccc(-c3cnn(CC(C)(C)O)c3)cc1-2	< 1000
CNS(=O)(=O)CCN1CC(c2ccc3c(c2)OCCc2sc(-c4ncnn4C(C)C)nc2-3)C1	< 1000
CC(=O)NCCNc1ccc2c(n1)-c1sc(-c3ncnn3-c3ccc(F)cc3F)cc1CCO2	< 1000
CN1CCC(CNc2ccc3c(n2)-c2sc(-c4ncnn4-c4ccc(F)cc4F)cc2CCO3)CC1	< 1000
CC(C)n1ncnc1-c1nc2c(s1)CCOc1ccc(C3CCN(CC(N)=O)CC3)cc1-2	< 1000
CC(C)n1ncnc1-c1nc2c(s1)CCOc1cc(C3CCN(CC(=O)NC(C)(C)C)CC3)ccc1-2	< 1000
COCCn1ccc(-c2ccc3c(c2)-c2nc(-c4ncnn4C(C)C)sc2CCO3)cc1=O	< 1000
CN(C[C@H](O)c1ccccc1)C(=O)c1nc2c(s1)CCOc1cc(-c3cn[nH]c3)ccc1-2	< 1000

Structure (SMILES)	IC50 [nM]
CC(C)n1ncnc1-c1nc2c(s1)CCOc1cc(C3CN(C(=O)[C@@H](C)O)C3)ccc1-2	< 1000
C[C@H](O)Cn1cc(-c2ccc3c(c2)OCCc2sc(-c4ncnn4CC(F)(F)F)nc2-3)cn1	< 1000
O=C(c1nc2c(s1)CCOc1cc(-c3cn[nH]c3)ccc1-2)N1CCN(C(=O)C2CC2)CC1	< 1000
CC(C)n1ncnc1-c1nc2c(s1)CCOc1cc(C3(O)CCNCC3)ccc1-2	< 1000
C[C@@H]1CCCN1C(=O)c1nc2c(s1)CCOc1cc(-c3cn[nH]c3)ccc1-2	< 1000
COCCOc1ncccc1-c1ccc2c(c1)-c1nc(-c3ncnn3C(C)C)sc1CCO2	< 1000
C[C@@H]1CN(c2ccc3c(n2)-c2sc(-c4ncnn4-c4ccc(F)cc4F)cc2CCO3)C[C@H](C)N1C(=O)C(F)(F)F	< 1000
CC(C)n1ncnc1-c1nc2c(s1)CCOc1ccc(-c3ccc(F)nc3)cc1-2	< 1000
CC(C)n1ncnc1-c1nc2c(s1)CCOc1ccc(C3CN(Cc4ccccc4Cl)C3)cc1-2	< 1000
FC(F)(F)Cn1ncnc1-c1nc2c(s1)CCOc1cc(-c3ccc(NCCN4CCOCC4)nc3)ccc1-2	< 1000
O=C(c1nc2c(s1)CCOc1cc(-c3cn[nH]c3)ccc1-2)N1CCC(CO)CC1	< 1000
COc1cncc(-c2ccc3c(c2)-c2nc(-c4ncnn4C(C)C)sc2CCO3)c1	< 1000
Cc1ccc(-c2ccc3c(n2)-c2sc(-c4ncnn4-c4ccc(F)cc4F)cc2CCO3)cn1	< 1000
COc1ccc(CNc2ccc3c(n2)-c2sc(-c4ncnn4-c4ccc(F)cc4F)cc2CCO3)cc1	< 1000
CC(C)N(CCO)C(=O)c1nc2c(s1)CCOc1cc(-c3cnn(CC(C)(C)O)c3)ccc1-2	< 1000
CN1CCN(C(=O)c2ccc(Cl)c(N(C)C(=O)c3cc4c(s3)-c3ccc(C(=O)NCCS(C)(=O)=O)cc3OCC4)c2)CC1	< 1000
CN(C(=O)c1nc2c(s1)CCOc1cc(-c3cn[nH]c3)ccc1-2)C1CCS(=O)(=O)C1 (stereo unspecified)	< 1000
CC(C)(CN)n1cc(-c2ccc3c(c2)OCCc2sc(-c4ncnn4CC(F)(F)F)nc2-3)cn1	< 1000
O=C(c1nc2c(s1)CCOc1cc(-c3cn[nH]c3)ccc1-2)N1CCN(C[C@H]2CCCO2)CC1	< 1000
CNC(=O)c1ccc2c(c1)OCCc1cc(C(=O)N(C)c3cc(C(=O)N4CCNCC4)ccc3Cl)sc1-2	< 1000
CC(C)n1nc(N)nc1-c1nc2c(s1)CCOc1cc(C3CN(CCS(C)(=O)=O)C3)ccc1-2	< 1000
CNC(=O)c1ccc2c(c1)OCCc1cc(C(=O)N(C)c3cc(C(=O)N4CC(F)(F)C4)ccc3Cl)sc1-2	< 1000
CC(C)n1ncnc1-c1nc2c(s1)CCOc1ccc(-c3ccc(=O)[nH]c3)cc1-2	< 1000
CC(C)n1ncnc1-c1nc2c(s1)CCOc1cc(C3CCN(S(C)(=O)=O)C3)ccc1-2 (stereo unspecified)	< 1000

Structure (SMILES)	IC50 [nM]
Fc1ccc(-n2ncnc2-c2cc3c(s2)-c2nc(-c4ccc(N5CCOCC5)nc4)ccc2OCC3)c(F)c1	< 1000
C[C@@H]1CN(c2ccc3c(n2)-c2sc(-c4ncnn4-c4ccc(F)cc4F)cc2CCO3)C[C@H](C)N1CC(F)(F)F	< 1000
FC(F)(F)Cn1ncnc1-c1nc2c(s1)CCOc1cc(-c3cnn(CCN4CCOCC4)c3)ccc1-2	< 1000
Cc1nc(-c2nc3c(s2)CCOc2cc(-c4cnn(C5CNC5)c4)ccc2-3)n(C(C)C)n1	< 1000
CC1CN(C(=O)c2nc3c(s2)CCOc2cc(-c4cn[nH]c4)ccc2-3)CCN1 (stereo unspecified)	< 1000
CC(C)N(CCO)C(=O)c1nc2c(s1)CCOc1cc(-c3cnn(C)c3)ccc1-2	< 1000
O=C(c1nc2c(s1)CCOc1cc(-c3cn[nH]c3)ccc1-2)N1CCC[C@@H](C(F)(F)F)C1	< 1000
C[C@@H]1CN(c2ccc3c(n2)-c2sc(-c4ncnn4-c4ccc(F)cc4F)cc2CCO3)C[C@H](C)N1C	< 1000
CC(C)n1ncnc1-c1nc2c(s1)CCOc1cc(-c3cnc(CO)n3C)ccc1-2	< 1000
CC(C)n1ncnc1-c1nc2c(s1)CCOc1cc(C(=O)NCCOCCO)ccc1-2	< 1000
CN(C)C1CCN(C(=O)c2nc3c(s2)CCOc2cc(-c4cn[nH]c4)ccc2-3)CC1	< 1000
CC(=O)N1CCC(Nc2ccc3c(n2)-c2sc(-c4ncnn4-c4ccc(F)cc4F)cc2CCO3)CC1	< 1000
CC(C)(O)Cn1cc(-c2ccc3c(c2)OCCc2sc(-c4ncnn4CCO)nc2-3)cn1	< 1000
O=C(c1nc2c(s1)CCOc1cc(-c3cn[nH]c3)ccc1-2)N1CCN(C(=O)[C@H]2CCCO2)CC1	< 1000
CN1CCN(C(=O)C2CCN(C(=O)c3nc4c(s3)CCOc3cc(-c5cn[nH]c5)ccc3-4)CC2)CC1	< 1000
O=C(c1nc2c(s1)CCOc1cc(-c3cn[nH]c3)ccc1-2)N1CCN(c2cnccn2)CC1	< 1000
CC(C)n1ncnc1-c1nc2c(s1)CCOc1cc(C3CN(CCS(=O)(=O)N(C)C)C3)ccc1-2	< 1000
CC(C)n1ncnc1-c1nc2c(s1)CCOc1ccc(C3CN(C(=O)[C@H](C)O)C3)cc1-2	< 1000
CC(C)n1ncnc1-c1nc2c(s1)CCOc1cc(C3CN(CC(N)=O)C3)ccc1-2	< 1000
CN(C[C@@H](O)CO)C(=O)c1nc2c(s1)CCOc1cc(-c3cn[nH]c3)ccc1-2	< 1000
CC(C)(O)Cn1cc(-c2ccc3c(c2)OCCc2sc(-c4ncnn4Cc4ccccn4)nc2-3)cn1	< 1000
COCc1nc(-c2nc3c(s2)CCOc2ccccc2-3)n(C(C)C)n1	< 1000
CN1CCN(c2ccc3c(n2)-c2sc(-c4ncnn4-c4ccc(F)cc4F)cc2CCO3)CC1	< 1000
